According to patent publication US20260216195A1, “MUTANT-SELECTIVE EGFR INHIBITORS” (Dana-Farber Cancer Institute, Inc., priority 2023, published 2026):

Tests used:
EGFR L858R/T790M = EGFR L858R/T790M (Homo sapiens, UniProt P00533, L858R/T790M); experiment: HTRF-based EGFR biochemical assay, L858R/T790M enzyme; conditions: L858R/T790M 0.02 nM enzyme, 100 μM ATP, 30 min preincubation, read-out: LRTM enzyme IC50
Experimental: (§1) EGFR biochemical activity measurements were carried out using the homogeneous time-resolved fluorescence (HTRF) assay (Cisbio). Inhibitors and DMSO normalizations were first dispensed to empty black low-volume 384-well plates (Corning) with D300 digital liquid dispenser (HP). All reactions were carried out at room temperature and solutions were added to plates with a Multidrop Combi Reagent Dispenser (ThermoFisher). The reaction mixture (10 μL final volume) contained 1 μM tyrosine kinase peptide-biotin substrate and mutant EGFR in a reaction buffer (50 mM HEPES pH 7.0, 5 mM MgCl2,1 mM MnCl2, 0.01% BSA, 2 mM TCEP, 0.1 mM NaVO4). Enzyme concentrations were adjusted to accommodate varying kinase activities (L858R 0.1 nM, L858R/T790M 0.02 nM). Enzyme reaction solution (2× concentrations, 5 μL) was added to 384-well plates containing compounds and incubated for 30 mins. Enzyme reactions were initiated with the addition of 5 μL of ATP to a final concentration of 100 μM and reacted for 20 mins. Reactions were quenched with the addition of 10 μL of phospho-tyrosine antibody-Europium(III) cryptate (1-to-180 volume ratio) and Streptavidin-XL665 (46.7 nM) in EDTA-containing detection buffer, then incubated at room temperature for 1 hour, and read with a PHERAstar plate reader (excitation=337 nm, emission=620 nm and 665 nm). IC50 values were determined by inhibition curves (11-point curves from 1.0 μM to 0.130 nM or 23-point curves from 1.0 μM to […]) in triplicate with non-linear least squares fit in GraphPad Prism 7.0d. The data obtained are shown in Table 2 below where “−” is indicative of an IC50 value of >5 nM “+” is indicative of an IC50 value of <5 nM, “++” is indicative of an IC50 value of <1 nM, and “+++” is indicative of an IC50 value of <0.5 nM.

EGFR L858R = EGFR L858R (Homo sapiens, UniProt P00533, L858R); experiment: HTRF-based EGFR biochemical assay, L858R enzyme; conditions: L858R 0.1 nM enzyme, 100 μM ATP, 30 min preincubation, read-out: LR enzyme IC50
Experimental: as §1

[1] = target: EGFR mutant L858R Ba/F3 cells (Homo sapiens, UniProt P00533, L858R, cells depend on it); experiment: Ba/F3 cell proliferation (Cell Titer Glo), EGFR L858R; assay type: cell-based, murine; conditions: 72 hours, read-out: BaF3 cell L858R IC50
Excerpt: (§2) The EGFR mutant L858R and L858R/T790M Ba/F3 cells have been previously described (Zhou, W., et al. Nature 462, 2009, 1070-1074). All cell lines were maintained in RPMI 1640 (Cellgro; Mediatech Inc., Herndon, CA) supplemented with 10% FBS, 100 units/mL penicillin, 100 units/mL streptomycin. The EGFR 1941R mutation was introduced via site directed mutagenesis using the Quick Change Site-Directed Mutagenesis kit (Stratagene; La Jolla, CA) according to the manufacturer's instructions. All constructs were confirmed by DNA sequencing. The constructs were shuttled into the retroviral vector JP1540 using the Cre-recombination system (Agilent Technologies, Santa Clara, CA). Ba/F3 cells were then infected with retrovirus per standard protocols, as described previously (Zhou, et al, Nature 2009). Stable clones were obtained by selection in puromycin (2 μg/ml).
(§3) Growth and inhibition of growth was assessed by the Cell Titer Glo assay (Promega, Madison, WI) and was performed according to the manufacturer's instructions. The Cell Titer Glo assay is a luminescence-based method used to determine the number of viable cells based on quantitation of the ATP present, which is directly proportional to the amount of metabolically active cells present. Ba/F3 cells of different EGFR genotypes were exposed to the compounds disclosed herein for 72 hours and the number of cells used per experiment was determined empirically as has been previously established (Zhou, et al., Nature 2009). All experimental points were set up in triplicates in 384-well plates and all experiments were repeated at least three times. […] The curves were fitted using a non-linear regression model with a sigmoidal dose response.

[2] = target: EGFR mutant L858R/T790M Ba/F3 cells (Homo sapiens, UniProt P00533, T790M/L858R, cells depend on it); experiment: Ba/F3 cell proliferation (Cell Titer Glo), EGFR L858R/T790M; assay type: cell-based, murine; conditions: 72 hours, read-out: BaF3 cell L858R/T790M
Excerpt: as §2, §3

Sequence of EGFR L858R (P00533 25-1210 L858R): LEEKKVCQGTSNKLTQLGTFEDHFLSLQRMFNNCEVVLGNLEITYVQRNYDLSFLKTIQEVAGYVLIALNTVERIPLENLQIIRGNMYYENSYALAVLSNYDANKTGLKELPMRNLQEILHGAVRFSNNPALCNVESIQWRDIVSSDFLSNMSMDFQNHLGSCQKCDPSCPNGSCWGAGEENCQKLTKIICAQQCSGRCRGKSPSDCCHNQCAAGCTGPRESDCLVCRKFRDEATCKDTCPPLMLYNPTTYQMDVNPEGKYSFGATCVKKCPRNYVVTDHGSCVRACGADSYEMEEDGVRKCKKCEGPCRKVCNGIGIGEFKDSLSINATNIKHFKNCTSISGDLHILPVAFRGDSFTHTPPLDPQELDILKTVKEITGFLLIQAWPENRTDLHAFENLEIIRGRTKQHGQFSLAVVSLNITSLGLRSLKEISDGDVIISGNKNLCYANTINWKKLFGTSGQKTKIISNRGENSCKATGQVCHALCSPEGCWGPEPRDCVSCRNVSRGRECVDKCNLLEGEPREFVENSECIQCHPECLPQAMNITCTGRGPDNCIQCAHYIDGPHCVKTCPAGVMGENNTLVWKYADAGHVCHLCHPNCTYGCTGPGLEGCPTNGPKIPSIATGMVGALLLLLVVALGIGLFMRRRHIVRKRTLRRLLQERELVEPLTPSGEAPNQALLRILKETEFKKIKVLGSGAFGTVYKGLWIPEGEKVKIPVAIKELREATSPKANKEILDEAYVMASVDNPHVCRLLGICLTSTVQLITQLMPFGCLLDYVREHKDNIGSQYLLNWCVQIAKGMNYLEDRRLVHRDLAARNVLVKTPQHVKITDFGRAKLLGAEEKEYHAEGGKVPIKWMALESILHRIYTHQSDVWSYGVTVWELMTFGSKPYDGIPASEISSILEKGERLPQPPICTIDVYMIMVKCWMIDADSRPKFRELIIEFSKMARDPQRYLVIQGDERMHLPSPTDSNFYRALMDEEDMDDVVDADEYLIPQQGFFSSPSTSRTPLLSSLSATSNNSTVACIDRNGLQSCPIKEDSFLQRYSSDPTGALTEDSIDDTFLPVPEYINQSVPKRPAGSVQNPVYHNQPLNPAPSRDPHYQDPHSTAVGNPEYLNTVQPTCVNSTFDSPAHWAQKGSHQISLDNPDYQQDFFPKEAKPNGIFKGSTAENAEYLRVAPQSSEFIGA
Sequence of EGFR mutant L858R/T790M Ba/F3 cells (P00533 whole entry T790M/L858R): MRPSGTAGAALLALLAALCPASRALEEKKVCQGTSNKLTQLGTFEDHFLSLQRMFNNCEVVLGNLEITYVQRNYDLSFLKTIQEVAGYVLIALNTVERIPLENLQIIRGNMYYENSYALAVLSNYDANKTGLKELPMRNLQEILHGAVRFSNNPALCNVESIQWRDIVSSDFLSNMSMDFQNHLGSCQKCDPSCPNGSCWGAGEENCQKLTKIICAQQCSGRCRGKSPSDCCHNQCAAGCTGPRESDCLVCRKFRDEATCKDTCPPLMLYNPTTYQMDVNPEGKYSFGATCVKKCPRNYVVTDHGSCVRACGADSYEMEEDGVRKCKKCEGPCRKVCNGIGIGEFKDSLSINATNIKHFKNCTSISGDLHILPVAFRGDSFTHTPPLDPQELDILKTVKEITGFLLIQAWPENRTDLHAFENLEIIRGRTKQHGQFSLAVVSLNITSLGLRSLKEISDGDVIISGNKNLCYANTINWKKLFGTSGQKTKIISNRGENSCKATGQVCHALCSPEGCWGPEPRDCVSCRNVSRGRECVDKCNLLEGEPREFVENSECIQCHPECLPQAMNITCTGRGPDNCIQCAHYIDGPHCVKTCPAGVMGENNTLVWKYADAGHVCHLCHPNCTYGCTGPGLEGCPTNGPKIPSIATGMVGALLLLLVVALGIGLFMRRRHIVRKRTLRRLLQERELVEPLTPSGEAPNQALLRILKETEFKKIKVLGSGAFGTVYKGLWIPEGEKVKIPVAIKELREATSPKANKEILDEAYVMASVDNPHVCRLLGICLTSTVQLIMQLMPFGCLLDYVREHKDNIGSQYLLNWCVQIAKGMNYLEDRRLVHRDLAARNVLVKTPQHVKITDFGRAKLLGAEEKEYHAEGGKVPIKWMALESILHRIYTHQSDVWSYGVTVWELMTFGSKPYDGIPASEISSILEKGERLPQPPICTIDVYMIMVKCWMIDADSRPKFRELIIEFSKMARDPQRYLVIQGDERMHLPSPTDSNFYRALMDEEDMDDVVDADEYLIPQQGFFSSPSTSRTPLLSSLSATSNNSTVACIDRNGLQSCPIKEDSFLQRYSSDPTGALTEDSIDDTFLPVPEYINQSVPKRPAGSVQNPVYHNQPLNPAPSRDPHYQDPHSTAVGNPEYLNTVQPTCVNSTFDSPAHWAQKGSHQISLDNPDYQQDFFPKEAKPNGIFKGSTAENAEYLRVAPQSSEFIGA
Sequence of EGFR L858R/T790M (P00533 25-1210 T790M/L858R): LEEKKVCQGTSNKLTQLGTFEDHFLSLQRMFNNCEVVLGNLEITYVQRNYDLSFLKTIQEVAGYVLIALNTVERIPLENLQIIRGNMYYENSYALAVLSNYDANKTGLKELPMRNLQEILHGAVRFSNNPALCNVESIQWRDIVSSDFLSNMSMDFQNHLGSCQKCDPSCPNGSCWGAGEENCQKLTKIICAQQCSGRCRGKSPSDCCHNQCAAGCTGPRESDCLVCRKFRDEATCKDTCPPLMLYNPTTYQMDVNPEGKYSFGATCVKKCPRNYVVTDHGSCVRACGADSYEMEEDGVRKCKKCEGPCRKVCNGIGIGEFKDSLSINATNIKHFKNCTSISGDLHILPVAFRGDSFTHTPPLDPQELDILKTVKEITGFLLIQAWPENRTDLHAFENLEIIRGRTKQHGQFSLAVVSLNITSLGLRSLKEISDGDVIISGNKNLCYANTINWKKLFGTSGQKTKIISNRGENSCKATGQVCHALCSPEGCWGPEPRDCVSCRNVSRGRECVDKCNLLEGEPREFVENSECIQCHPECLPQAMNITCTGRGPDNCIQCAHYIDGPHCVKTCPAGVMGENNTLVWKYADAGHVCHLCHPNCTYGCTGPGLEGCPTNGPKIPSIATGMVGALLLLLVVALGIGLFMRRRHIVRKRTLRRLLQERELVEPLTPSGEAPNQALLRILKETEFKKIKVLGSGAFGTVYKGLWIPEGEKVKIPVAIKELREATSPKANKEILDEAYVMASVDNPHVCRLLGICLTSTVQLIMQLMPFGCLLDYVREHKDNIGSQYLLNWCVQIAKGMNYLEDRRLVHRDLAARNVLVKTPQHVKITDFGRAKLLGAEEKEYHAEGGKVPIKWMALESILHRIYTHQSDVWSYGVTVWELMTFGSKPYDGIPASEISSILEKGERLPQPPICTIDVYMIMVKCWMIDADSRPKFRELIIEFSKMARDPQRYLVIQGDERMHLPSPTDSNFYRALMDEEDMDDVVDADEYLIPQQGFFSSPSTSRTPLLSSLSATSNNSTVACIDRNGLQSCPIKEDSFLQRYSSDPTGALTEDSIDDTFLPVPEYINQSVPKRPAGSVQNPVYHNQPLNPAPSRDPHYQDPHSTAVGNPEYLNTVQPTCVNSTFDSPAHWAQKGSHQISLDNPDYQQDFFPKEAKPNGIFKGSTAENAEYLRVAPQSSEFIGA
Sequence of EGFR mutant L858R Ba/F3 cells (P00533 whole entry L858R): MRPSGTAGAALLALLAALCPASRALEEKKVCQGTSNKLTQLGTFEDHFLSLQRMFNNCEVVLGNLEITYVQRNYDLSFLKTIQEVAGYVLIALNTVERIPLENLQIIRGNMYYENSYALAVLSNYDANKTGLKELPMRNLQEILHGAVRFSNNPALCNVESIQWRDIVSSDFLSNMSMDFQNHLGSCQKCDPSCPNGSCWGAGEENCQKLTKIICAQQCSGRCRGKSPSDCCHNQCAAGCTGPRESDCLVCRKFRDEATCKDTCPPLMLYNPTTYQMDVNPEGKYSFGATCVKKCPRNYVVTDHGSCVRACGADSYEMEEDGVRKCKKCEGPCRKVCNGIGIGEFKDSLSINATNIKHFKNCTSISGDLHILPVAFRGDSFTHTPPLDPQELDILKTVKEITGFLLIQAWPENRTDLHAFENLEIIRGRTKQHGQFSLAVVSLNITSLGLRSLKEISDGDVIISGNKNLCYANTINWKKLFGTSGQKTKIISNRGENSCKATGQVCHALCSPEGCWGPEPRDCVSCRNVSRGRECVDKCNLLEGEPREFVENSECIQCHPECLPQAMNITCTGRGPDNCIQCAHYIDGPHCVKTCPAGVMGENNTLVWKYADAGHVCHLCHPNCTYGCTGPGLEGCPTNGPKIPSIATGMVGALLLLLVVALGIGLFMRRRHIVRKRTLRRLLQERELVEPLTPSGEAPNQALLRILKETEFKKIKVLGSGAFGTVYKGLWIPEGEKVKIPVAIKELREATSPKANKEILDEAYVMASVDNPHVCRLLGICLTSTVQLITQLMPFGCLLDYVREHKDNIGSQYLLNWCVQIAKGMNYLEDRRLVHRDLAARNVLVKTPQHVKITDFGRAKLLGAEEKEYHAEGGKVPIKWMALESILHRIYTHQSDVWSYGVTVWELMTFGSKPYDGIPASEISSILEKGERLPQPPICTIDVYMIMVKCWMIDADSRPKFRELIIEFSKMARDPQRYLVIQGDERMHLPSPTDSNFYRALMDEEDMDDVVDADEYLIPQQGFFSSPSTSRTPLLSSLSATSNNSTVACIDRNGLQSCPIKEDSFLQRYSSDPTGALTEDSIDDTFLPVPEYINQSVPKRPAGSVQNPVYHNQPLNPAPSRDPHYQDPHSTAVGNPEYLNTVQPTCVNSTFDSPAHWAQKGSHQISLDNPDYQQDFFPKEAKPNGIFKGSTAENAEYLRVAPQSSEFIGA

Which results are given for `CN1CCC(c2ccc(-c3cc(F)c4c(=O)n(C(C(=O)Nc5nccs5)c5ncn6c5CCC6)ccc4c3)cc2)CC1` (centres unmarked) [Compound 001, 2-(6,7-Dihydro-5H-pyrrolo[1,2-c]imidazol-1-yl)-2-(8-fluoro-6-(4-(1-methylpiperidin-4-yl)phenyl)-1-oxoisoquinolin-2(1H)-yl)-N-(thiazol-2-yl)acetamide]?
IC50 (EGFR L858R/T790M): < 0.5 nM; IC50 (EGFR L858R): < 5 nM; GI50 [1]: < 500 nM; GI50 [2]: < 100 nM

For `CN1CCC(c2ccc(-c3cc(F)c4c(=O)n(C(C(=O)Nc5nccs5)c5ncn6c5C[C@@H](F)C6)ccc4c3)cc2)CC1` (stereo partly drawn) [Compound 002, 2-((R)-6-Fluoro-6,7-dihydro-5H-pyrrolo[1,2-c]imidazol-1-yl)-2-(8-fluoro-6-(4-(1-methylpiperidin-4-yl)phenyl)-1-oxoisoquinolin-2(1H)-yl)-N-(thiazol-2-yl)acetamide], which IC50 (EGFR L858R/T790M) is on record?
Its IC50 is under 1 nM.

What about the IC50 (EGFR L858R) of the same compound?
Its IC50 is under 5 nM.

And the GI50 [1]?
The GI50 was under 500 nM.

What about the GI50 [2] of the same compound?
The GI50 was under 500 nM.

With `CN1CCC(c2ccc(-c3cc4ccn(C(C(=O)Nc5nccs5)c5ncn6c5CCC6)c(=O)c4s3)cc2)CC1` (centres unmarked) [Compound 003, 2-(6,7-Dihydro-5H-pyrrolo[1,2-c]imidazol-1-yl)-2-(2-(4-(1-methylpiperidin-4-yl)phenyl)-7-oxothieno[2,3-c]pyridin-6(7H)-yl)-N-(thiazol-2-yl)acetamide] as the compound, how does the IC50 (EGFR L858R/T790M) read?
The IC50 was under 0.5 nM.

What about the IC50 (EGFR L858R) of the same compound?
The IC50 was under 5 nM.

What about the GI50 [1] of the same compound?
Its GI50 is under 500 nM.

And the GI50 [2]?
Its GI50 is under 100 nM.

How did the IC50 (EGFR L858R/T790M) turn out when `CN1CCC(c2ccc(-c3cc4ccn(C(C(=O)Nc5nccs5)c5ncn6c5C[C@@H](F)C6)c(=O)c4s3)cc2)CC1` (stereo partly drawn) [Compound 004, 2-((R)-6-Fluoro-6,7-dihydro-5H-pyrrolo[1,2-c]imidazol-1-yl)-2-(2-(4-(1-methylpiperidin-4-yl)phenyl)-7-oxothieno[2,3-c]pyridin-6(7H)-yl)-N-(thiazol-2-yl)acetamide] was run?
The IC50 was under 0.5 nM.

What about the IC50 (EGFR L858R) of the same compound?
Its IC50 is under 5 nM.

What about the GI50 [1] of the same compound?
The GI50 was under 5000 nM.

And the GI50 [2]?
Its GI50 is under 500 nM.

Which results are given for `CN1CCC(c2ccc(-c3ccc4ncn(C(C(=O)Nc5nccs5)c5ncn6c5CCC6)c(=O)c4c3)cc2)CC1` (centres unmarked) [Compound 005, 2-(6,7-Dihydro-5H-pyrrolo[1,2-c]imidazol-1-yl)-2-(6-(4-(1-methylpiperidin-4-yl)phenyl)-4-oxoquinazolin-3(4H)-yl)-N-(thiazol-2-yl)acetamide]?
IC50 (EGFR L858R/T790M): < 0.5 nM; IC50 (EGFR L858R): < 1 nM; GI50 [1]: < 500 nM; GI50 [2]: < 100 nM

Which results are given for `CN1CCC(c2ccc(-c3ccc4ncn(C(C(=O)Nc5nccs5)c5ncn6c5CCC6)c(=O)c4c3F)cc2)CC1` (centres unmarked) [Compound 006, 2-(6,7-Dihydro-5H-pyrrolo[1,2-c]imidazol-1-yl)-2-(5-fluoro-6-(4-(1-methylpiperidin-4-yl)phenyl)-4-oxoquinazolin-3(4H)-yl)-N-(thiazol-2-yl)acetamide]?
IC50 (EGFR L858R/T790M): < 0.5 nM; IC50 (EGFR L858R): < 5 nM; GI50 [1]: < 500 nM; GI50 [2]: < 100 nM

What does the source list for `CN1CCN(c2ccc(-c3ccc4ncn(C(C(=O)Nc5nccs5)c5ncn6c5CCC6)c(=O)c4c3)cc2)CC1` (centres unmarked) [Compound 007, 2-(6,7-Dihydro-5H-pyrrolo[1,2-c]imidazol-1-yl)-2-(6-(4-(4-methylpiperazin-1-yl)phenyl)-4-oxoquinazolin-3(4H)-yl)-N-(thiazol-2-yl)acetamide]?
IC50 (EGFR L858R/T790M): < 5 nM; IC50 (EGFR L858R): > 5 nM; GI50 [1]: < 5000 nM; GI50 [2]: < 5000 nM

With `CN1CCC(c2ccc(-c3ccc4c(c3)C(=O)N(C(C(=O)Nc3nccs3)c3ncn5c3CCC5)CO4)cc2)CC1` (centres unmarked) [Compound 008, 2-(6,7-Dihydro-5H-pyrrolo[1,2-c]imidazol-1-yl)-2-(6-(4-(1-methylpiperidin-4-yl)phenyl)-4-oxo-2H-benzo[e][1,3]oxazin-3(4H)-yl)-N-(thiazol-2-yl)acetamide] as the compound, how does the IC50 (EGFR L858R/T790M) read?
The IC50 was under 0.5 nM.

What about the IC50 (EGFR L858R) of the same compound?
Its IC50 is under 5 nM.

And the GI50 [1]?
Its GI50 is under 500 nM.

And the GI50 [2]?
The GI50 was under 100 nM.
